Measurements taken from US20110262508A1, “ANTIMICROBIAL COMPOSITIONS, FORMULATIONS AND USES THEREOF” (priority 2007, published 2011).
Like-named read-outs stand apart in the source and are kept apart here. Square brackets hold non-standard residues; d marks the D form. Peptide text beside a SMILES is read from it. * marks the point of attachment. Biotin = O=C1N[C@H]2[C@H](CS[C@H]2CCCCC(=O)*)N1

Tests used:
A. baumannii [1] = assay type: cell-based
Procedure, shortened: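 Laboratory strains and 50 clinical isolates of A. baumannii were tested by CLSI broth microdilution, with serially diluted peptide (0.1-64 μg) and about 1×10^5 C.F.U. per well, incubated aerobically overnight at 35±2° C. MIC was read visually. MBC came from subculturing clear wells, as ≥99.9% inoculum reduction.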

human RBC = assay: Hemolysis of RBC; assay type: cell-based
Method: Varying amounts of peptide were incubated with the washed RBC for one hour at room temperature. Intact cells were pelleted by gentle centrifugation, and hemolysis of each sample was determined by absorption measurement at 450 nm. A positive control sample consisted of RBC lysed by the addition of 0.1% Triton, for which hemolysis was also determined by absorption measurement at 450 nm. Percentages of lysed RBC incubated with peptide were then calculated by the ratio of absorbances at 450 nm for the sample relative to the absorbance at 450 nm of the positive control sample. The MHC10 value was calculated as the minimum peptide concentration to induce 10% cell lysis.

[2] = Cytotoxicity against Jurkat cells (CellTiter Blue); assay type: cell-based, human; conditions: human
Method: (§1) The cytotoxicities of selected peptides against human T-lymphocytes, in particular Jurkat cells, was determined by growing 100 uL Jurkat cells in RPMI (approx. 5×10^5 cells/ml density) overnight at 37° C. under 5% CO2 atmosphere, in microtiter plate wells, in the presence and absence of peptides. Control reactions either lacked peptide (negative cytotoxicity control), or contained a buffer to completely lyse Jurkat cells (positive cytotoxicity control). The viabilities of cells were then determined by addition of 20 uL CellTiter Blue dye (Promega) to each well, and incubation of cells for a further 3 hrs at 37° C. Fluorescence values were measured for 1 sec at 540 nm/615 nm, and expressed relative to fluorescence values for negative and positive cytotoxicity control samples. Comparison with a fully lysed control allowed the calculation of a percentage killing for each peptide concentration. The MCC10 value was calculated as the minimum peptide concentration required to induce 10% cytotoxicity.

Jurkat cells = assay: Cytotoxicity against Jurkat cells (CellTiter Blue); assay type: cell-based, human
Method: as §1

A. baumannii [3] = assay: A. baumannii lung infection in mice, cell counts in lungs; assay type: in vivo, C57B1/6 mice
Method: Groups of C57B1/6 mice that have been ear-tagged for identification are used. Freshly-prepared inocula of A. baumannii are prepared from cultures of A. baumannii passaged four times through mice, and cultures are grown with agitation at 37° C. in Nutrient broth to an OD600 value of approximately 0.3 units. Cells are collected by centrifugation at room temperature for 20 mins (5,500 rpm using a GA-10 rotor) and resuspended in 10 ml sterile PBS at room temperature. This wash is repeated once. The cell pellet is then resuspended in 0.5 ml PBS to an approximate concentration of 2.5×10^9 c.f.u./ml. Animals are inoculated intranasally 40 μl inoculum (approximately 1×10^8 c.f.u.) using a sterile 200 μl capacity pipette tip having approximately 3 mm removed from the end. The precise time of inoculation is recorded for each animal. Peptides are administered intravenously e.g., after 3 hr, in 200 μl aliquots of a 200 μM peptide solution in PBS.
At 5.5 hr post-inoculation (taking into account staggered inoculation times), both lung lobes are removed from the animals, homogenised in 0.9 ml PBS and plated on MHB plates at 1×10^−3 dilution, 1×10^−4 dilution and 1×10^−5 dilution in PBS. Following incubation periods sufficient to grow colonies, cells are counted.

[4] = tested on: A. baumannii ATCC Accession No. 19606; assay type: cell-based; conditions: A. baumannii ATCC 19606
[5] = tested on: Acinetobacter spp. ATCC 17903; assay type: cell-based
[6] = tested on: Acinetobacter spp. ATCC 19004; assay type: cell-based
[7] = tested on: Escherichia coli strain BL21; assay type: cell-based; conditions: E. coli BL21
P. aeruginosa = assay type: cell-based
S. aureus = assay type: cell-based
[8] = tested on: S. typhimurium strain AroA; assay type: cell-based
[9] = tested on: A. baumannii ATCC 19606, Acinetobacter spp. ATCC 17903, Acinetobacter spp. ATCC 19004, E. coli BL21, S. aureus, S. typhimurium AroA, P. aeruginosa, P. …; assay: Antibacterial spectrum over the serial dilution panel (Table 6); assay type: cell-based; conditions: summary of Table 6
Procedure, shortened: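 Peptides at about 5–10 μM were added to liquid media freshly inoculated with each bacterial strain and shaken 5-6 h at 37° C. Growth read as absorbance at 595 nm; control cultures contained 0.1% acetonitrile.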

A. baumannii cultures = assay: Time taken to exert cytotoxic effect (killing time); assay type: cell-based
Method: To determine the time killing times for bactericidal peptides, A. baumannii cultures were exposed to different concentrations of peptides for predetermined time periods, and the numbers of bacteria surviving at the end of each time period were determined. Peptides were classified as “Fast”, “Intermediate” or “Slow” according to whether they exerted their cytotoxic effect in less than 30 mins, or between 30-60 mins, or between […] and 240 mins.

CC[C@@H](C)[C@@H](NC(=O)[C@@H](CCCNC(=N)N)NC(=O)[C@@H](C)NC(=O)[C@@H](CC(C)C)NC(=O)[C@@H](CCCNC(=N)N)NC(=O)[C@@H](CCCNC(=N)N)NC(=O)CCCC[C@@H]1SC[C@@H]2NC(=O)N[C@@H]21)C(=O)N[C@H](CCCCN)C(=O)N[C@H](CO)C(=O)N[C@H](CC(C)C)C(=O)N[C@H](CC(C)C)C(=O)N[C@H](CCC(N)=O)C(=O)N[C@H](CCCNC(=N)N)C(=O)N[C@H](CS)C(=O)N[C@@H](C(=O)N[C@H](C)C(=O)N[C@H](Cc1ccccc1)C(=O)N[C@H](Cc1ccccc1)C(=O)N[C@H](CO)C(=O)N[C@H](Cc1c[nH]cn1)C(=O)N[C@H](CC(N)=O)C(=O)N[C@H](Cc1ccc(O)cc1)C(=O)N[C@H](CCCNC(=N)N)C(=O)N[C@@H](C(=O)O)C(C)C)C(C)C [Ac13r] (Biotin-[dR][dR][dL][dA][dR][dI][dK][dS][dL][dL][dQ][dR][dC][dV][dA][dF][dF][dS][dH][dN][dY][dR][dV]-OH; N-terminus and C-terminus assumed)
MIC (μM) for amidated peptide (A. baumannii [1]): 1.25 to 2.5 µM | MIC (μM) for non-amidated Peptide (A. baumannii [1]): 1.25 to 2.5 µM | MHC10 (human RBC): ~15 µM | cytotoxicity at 12.5 μM [2]: 0% | cytotoxicity at 25 μM [2]: 3% | cytotoxicity at 50 μM [2]: 39% | MCC10 (Jurkat cells): 30 µM | trend to reduce A. baumannii infection in the lung (A. baumannii [3]): strong trend | Cell counts in lungs post-treatment, Mouse 2 (A. baumannii [3]; as E41, Mouse 2): 2.6 × 10^5 | Cell counts in lungs post-treatment, Mouse 3 (A. baumannii [3]; as E41, Mouse 3): 9.0 × 10^4 | Cell counts in lungs post-treatment, Mouse 1 (A. baumannii [3]; peptide i.v. after intranasal A. baumannii, lungs at 5.5 hr post-inoculation, Mouse 1): 1 × 10^4

CC(C)C[C@H](NC(=O)CNC(=O)[C@@H]1CCCN1C(=O)[C@H](Cc1c[nH]c2ccccc12)NC(=O)[C@H](CCCCN)NC(=O)[C@H](CCCCN)NC(=O)[C@H](CCCNC(=N)N)NC(=O)[C@H](C)NC(=O)[C@H](CCC(N)=O)NC(=O)[C@@H]1CCCN1C(=O)[C@H](CO)NC(=O)[C@@H](NC(=O)[C@H](CCCCN)NC(=O)[C@H](CC(C)C)NC(=O)[C@H](CCCCN)NC(=O)[C@@H](NC(=O)[C@H](CC(C)C)NC(=O)[C@H](Cc1c[nH]cn1)NC(=O)[C@H](CC(=O)O)NC(=O)CN)C(C)C)[C@@H](C)O)C(=O)NCC(=O)N[C@@H](CC(N)=O)C(=O)N[C@@H](CCC(=O)O)C(=O)O [Ac99] (H-GDHLVKLKTSPQARKKWPGLGNE-OH; N-terminus and C-terminus assumed)
% inhibition of bacterial growth by peptide ([4]; 12.5 μM peptide): 9% | % inhibition of bacterial growth by peptide ([4]; 15 μM peptide): 20% | % inhibition of bacterial growth by peptide ([4]; 17.5 μM peptide): 14% | % inhibition of bacterial growth by peptide ([4]; 20 μM peptide): 27% | % inhibition of bacterial growth by peptide ([5]; 12.5 μM peptide): 0% | % inhibition of bacterial growth by peptide ([5]; 15 μM peptide): 1% | % inhibition of bacterial growth by peptide ([5]; 17.5 μM peptide): 1% | % inhibition of bacterial growth by peptide ([5]; 20 μM peptide): 32% | % inhibition of bacterial growth by peptide ([6]; 12.5 μM peptide): 0% | % inhibition of bacterial growth by peptide ([6]; 15 μM peptide): 1% | % inhibition of bacterial growth by peptide ([6]; 17.5 μM peptide): 7% | % inhibition of bacterial growth by peptide ([6]; 20 μM peptide): 92% | % inhibition of bacterial growth by peptide ([7]; 12.5 μM peptide): 16% | % inhibition of bacterial growth by peptide ([7]; 15 μM peptide): 23% | % inhibition of bacterial growth by peptide ([7]; 17.5 μM peptide): 17% | % inhibition of bacterial growth by peptide ([7]; 20 μM peptide): 27% | % inhibition of bacterial growth by peptide (P. aeruginosa; 12.5 μM peptide): 8% | % inhibition of bacterial growth by peptide (P. aeruginosa; 15 μM peptide): 21% | % inhibition of bacterial growth by peptide (P. aeruginosa; 17.5 μM peptide): 0% | % inhibition of bacterial growth by peptide (P. aeruginosa; 20 μM peptide): 0% | % inhibition of bacterial growth by peptide (S. aureus; 12.5 μM peptide): 60% | % inhibition of bacterial growth by peptide (S. aureus; 15 μM peptide): 80% | % inhibition of bacterial growth by peptide (S. aureus; 17.5 μM peptide): 99% | % inhibition of bacterial growth by peptide (S. aureus; 20 μM peptide): 100% | % inhibition of bacterial growth by peptide ([8]; 12.5 μM peptide): 0% | % inhibition of bacterial growth by peptide ([8]; 15 μM peptide): 5% | % inhibition of bacterial growth by peptide ([8]; 17.5 μM peptide): 0% | % inhibition of bacterial growth by peptide ([8]; 20 μM peptide): 4% | selectively inhibited growth of Acinetobacter spp. ATCC 19004, and S. aureus [9]: selectively inhibited growth

CC[C@H](C)[C@H](NC(=O)[C@H](Cc1c[nH]c2ccccc12)NC(=O)[C@H](CC(=O)O)NC(=O)[C@H](CO)NC(=O)[C@H](CS)NC(=O)[C@H](CC(C)C)NC(=O)[C@H](CC(C)C)NC(=O)[C@H](C)NC(=O)[C@H](CS)NC(=O)[C@H](CCCNC(=N)N)NC(=O)[C@H](CC(C)C)NC(=O)[C@H](CCCNC(=N)N)NC(=O)[C@H](C)NC(=O)CNC(=O)[C@H](CCCNC(=N)N)NC(=O)[C@@H](NC(=O)CCCC[C@@H]1SC[C@@H]2NC(=O)N[C@@H]21)C(C)C)C(=O)N[C@H](C(=O)N[C@@H](CO)C(=O)N[C@@H](CS)C(=O)N[C@@H](CCCNC(=N)N)C(=O)N[C@@H](CC(C)C)C(=O)N[C@@H](CC(C)C)C(=O)NCC(=O)O)C(C)C [Ac38] (Biotin-VRGARLRCALLCSDWIVSCRLLG-OH; N-terminus and C-terminus assumed)
selectively inhibited growth of A. baumannii ATCC Accession No. 19606, Acinetobacter spp. ATCC 17903, Acinetobacter spp. ATCC 19004, and S. aureus [9]: selectively inhibited growth | MIC (μM) for amidated peptide (A. baumannii [1]): 15 to 20 µM | MIC (μM) for non-amidated Peptide (A. baumannii [1]): 40 µM | bactericidal or bacteriostatic against A. baumannii (A. baumannii [1]): bactericidal | killing time classification (A. baumannii cultures): RAPID | MHC10 (human RBC): >100 µM | Percent hemolysis at 5 μM peptide (human RBC; red cells of human, 5): 0.8% | Percent hemolysis at 10 μM peptide (human RBC; red cells of human, 10): 3.8% | Percent hemolysis at 20 μM peptide (human RBC; red cells of human, 20): 4.8% | Percent hemolysis at 40 μM peptide (human RBC; red cells of human, 40): 11.9% | Percent hemolysis at 60 μM peptide (human RBC; red cells of human, 60): 19.5% | Percent hemolysis at 80 μM peptide (human RBC; red cells of human, 80): 26.9% | Percent hemolysis at 100 μM peptide (human RBC; red cells of human, 1 h, 100): 27.9% | cytotoxicity at 12.5 μM [2]: 0% | cytotoxicity at 25 μM [2]: 0% | cytotoxicity at 50 μM [2]: 0%
